Our source for the EC50 and IC50 values is patent US20250352512A2, “C4-S[…] DERIVATIVES AND METHODS OF USING” (priority 2022, published 2025).

Targets include DRD2S (Homo sapiens, UniProt P14416); HTR2B (5-HT2B) (Homo sapiens, UniProt P41595); NMDAR (Homo sapiens, UniProt Q05586+Q13224).
Holding throughout (test): cell-based
The target of another test is T1, ADRA1A (Homo sapiens, UniProt P35348).
T1 sequence (P35348 1-466): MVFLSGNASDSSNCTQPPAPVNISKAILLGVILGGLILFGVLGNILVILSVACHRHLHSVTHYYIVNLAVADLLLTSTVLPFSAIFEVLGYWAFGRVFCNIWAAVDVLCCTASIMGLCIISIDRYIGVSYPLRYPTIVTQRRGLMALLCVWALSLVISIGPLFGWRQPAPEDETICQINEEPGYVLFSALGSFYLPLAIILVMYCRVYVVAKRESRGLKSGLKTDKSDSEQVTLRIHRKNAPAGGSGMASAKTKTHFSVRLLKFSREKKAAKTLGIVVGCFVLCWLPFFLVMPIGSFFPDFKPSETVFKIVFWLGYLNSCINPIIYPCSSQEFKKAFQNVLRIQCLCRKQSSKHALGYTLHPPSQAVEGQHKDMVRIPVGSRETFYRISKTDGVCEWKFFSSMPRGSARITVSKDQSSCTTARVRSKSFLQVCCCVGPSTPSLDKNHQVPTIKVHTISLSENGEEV

A further test addresses T2, ADRA2A (Homo sapiens, UniProt P08913).
T2 sequence (P08913 1-465): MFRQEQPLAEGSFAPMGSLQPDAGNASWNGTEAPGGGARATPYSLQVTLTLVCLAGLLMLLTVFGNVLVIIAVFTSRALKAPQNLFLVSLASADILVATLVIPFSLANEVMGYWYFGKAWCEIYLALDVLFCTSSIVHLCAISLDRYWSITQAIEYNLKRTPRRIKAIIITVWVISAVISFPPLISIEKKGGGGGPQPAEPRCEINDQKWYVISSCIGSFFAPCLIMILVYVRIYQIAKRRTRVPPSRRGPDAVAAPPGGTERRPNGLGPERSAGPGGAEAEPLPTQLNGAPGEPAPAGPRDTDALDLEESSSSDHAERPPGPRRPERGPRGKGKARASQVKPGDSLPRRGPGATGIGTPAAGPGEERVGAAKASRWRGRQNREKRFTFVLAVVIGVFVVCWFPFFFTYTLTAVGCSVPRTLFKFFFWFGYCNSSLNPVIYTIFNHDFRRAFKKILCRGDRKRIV

The next test concerns the target T3, CHRM2 (Homo sapiens, UniProt P08172).
T3 sequence (P08172 1-466): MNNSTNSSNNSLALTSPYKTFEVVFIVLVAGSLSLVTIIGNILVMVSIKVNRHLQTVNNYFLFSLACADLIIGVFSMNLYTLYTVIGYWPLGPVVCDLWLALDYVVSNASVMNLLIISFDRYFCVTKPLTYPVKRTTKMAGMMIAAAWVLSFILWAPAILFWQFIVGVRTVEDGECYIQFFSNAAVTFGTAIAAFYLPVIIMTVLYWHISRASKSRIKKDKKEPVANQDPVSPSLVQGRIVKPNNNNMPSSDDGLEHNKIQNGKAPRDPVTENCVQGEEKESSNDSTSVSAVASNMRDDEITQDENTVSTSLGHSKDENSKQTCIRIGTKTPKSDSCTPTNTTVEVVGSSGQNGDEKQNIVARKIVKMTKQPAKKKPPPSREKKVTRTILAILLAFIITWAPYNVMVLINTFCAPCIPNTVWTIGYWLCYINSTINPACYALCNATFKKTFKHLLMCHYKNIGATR

Another test addresses T4, HTR1A (5-HT1A) (Homo sapiens, UniProt P08908).
T4 sequence (P08908 1-422): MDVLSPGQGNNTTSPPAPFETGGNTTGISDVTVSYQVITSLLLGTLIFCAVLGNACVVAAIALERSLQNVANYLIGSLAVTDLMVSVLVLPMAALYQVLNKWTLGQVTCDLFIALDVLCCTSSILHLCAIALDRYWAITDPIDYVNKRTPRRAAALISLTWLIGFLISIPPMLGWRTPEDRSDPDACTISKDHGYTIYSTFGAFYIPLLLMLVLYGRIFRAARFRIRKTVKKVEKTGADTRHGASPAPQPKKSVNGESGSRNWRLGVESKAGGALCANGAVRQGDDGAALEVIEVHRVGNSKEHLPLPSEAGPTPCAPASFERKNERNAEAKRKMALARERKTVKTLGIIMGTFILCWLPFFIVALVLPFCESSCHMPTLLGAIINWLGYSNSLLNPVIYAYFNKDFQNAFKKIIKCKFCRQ

[1] abbreviates: ADRA1A, GPCR, AGN (agonist), read-out: EC50.
Where [2] appears, read: ADRA2A, GPCR, AGN (agonist), read-out: EC50.
The mark [3] stands for this setting: CHRM2, GPCR, AGN (agonist), read-out: EC50.
The mark [4] stands for this setting: DRD2S, GPCR, AGN (agonist), read-out: EC50.
Setting [5] is: HTR1A, GPCR, ANT (antagonist), read-out: IC50.
Where [6] appears, read: HTR2B, GPCR, AGN (agonist), read-out: EC50.
Where [7] appears, read: NMDAR, ion channel, BL (blocker), read-out: IC50.

Read-outs that look alike come from different tables or passages of the source.

Sequence of DRD2S (P14416 1-414 isoform P14416-2): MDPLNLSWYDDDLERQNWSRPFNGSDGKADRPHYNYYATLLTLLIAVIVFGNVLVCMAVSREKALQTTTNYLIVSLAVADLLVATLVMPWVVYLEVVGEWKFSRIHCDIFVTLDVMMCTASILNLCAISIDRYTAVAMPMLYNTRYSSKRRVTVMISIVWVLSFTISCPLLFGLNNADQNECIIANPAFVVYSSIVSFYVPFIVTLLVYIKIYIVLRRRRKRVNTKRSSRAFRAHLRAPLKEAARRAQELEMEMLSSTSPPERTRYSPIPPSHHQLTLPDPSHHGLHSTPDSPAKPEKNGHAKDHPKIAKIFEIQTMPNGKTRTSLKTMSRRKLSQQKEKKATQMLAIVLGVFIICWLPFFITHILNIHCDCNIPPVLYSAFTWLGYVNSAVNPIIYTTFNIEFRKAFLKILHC
Sequence of HTR2B (5-HT2B) (P41595 whole entry): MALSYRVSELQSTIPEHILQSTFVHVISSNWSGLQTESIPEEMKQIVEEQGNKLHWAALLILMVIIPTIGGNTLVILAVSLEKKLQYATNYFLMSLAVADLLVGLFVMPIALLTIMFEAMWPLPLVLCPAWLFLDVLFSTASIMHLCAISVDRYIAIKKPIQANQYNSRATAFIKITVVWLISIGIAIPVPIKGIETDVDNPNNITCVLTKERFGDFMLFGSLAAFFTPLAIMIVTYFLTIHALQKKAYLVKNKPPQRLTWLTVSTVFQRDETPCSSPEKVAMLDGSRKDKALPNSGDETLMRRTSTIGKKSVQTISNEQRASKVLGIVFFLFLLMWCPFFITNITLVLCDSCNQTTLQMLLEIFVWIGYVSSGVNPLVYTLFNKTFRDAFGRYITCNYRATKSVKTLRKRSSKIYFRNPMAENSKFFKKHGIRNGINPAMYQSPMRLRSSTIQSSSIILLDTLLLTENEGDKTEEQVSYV
Sequence of NMDAR (Q13224 27-1484, other chains not shown): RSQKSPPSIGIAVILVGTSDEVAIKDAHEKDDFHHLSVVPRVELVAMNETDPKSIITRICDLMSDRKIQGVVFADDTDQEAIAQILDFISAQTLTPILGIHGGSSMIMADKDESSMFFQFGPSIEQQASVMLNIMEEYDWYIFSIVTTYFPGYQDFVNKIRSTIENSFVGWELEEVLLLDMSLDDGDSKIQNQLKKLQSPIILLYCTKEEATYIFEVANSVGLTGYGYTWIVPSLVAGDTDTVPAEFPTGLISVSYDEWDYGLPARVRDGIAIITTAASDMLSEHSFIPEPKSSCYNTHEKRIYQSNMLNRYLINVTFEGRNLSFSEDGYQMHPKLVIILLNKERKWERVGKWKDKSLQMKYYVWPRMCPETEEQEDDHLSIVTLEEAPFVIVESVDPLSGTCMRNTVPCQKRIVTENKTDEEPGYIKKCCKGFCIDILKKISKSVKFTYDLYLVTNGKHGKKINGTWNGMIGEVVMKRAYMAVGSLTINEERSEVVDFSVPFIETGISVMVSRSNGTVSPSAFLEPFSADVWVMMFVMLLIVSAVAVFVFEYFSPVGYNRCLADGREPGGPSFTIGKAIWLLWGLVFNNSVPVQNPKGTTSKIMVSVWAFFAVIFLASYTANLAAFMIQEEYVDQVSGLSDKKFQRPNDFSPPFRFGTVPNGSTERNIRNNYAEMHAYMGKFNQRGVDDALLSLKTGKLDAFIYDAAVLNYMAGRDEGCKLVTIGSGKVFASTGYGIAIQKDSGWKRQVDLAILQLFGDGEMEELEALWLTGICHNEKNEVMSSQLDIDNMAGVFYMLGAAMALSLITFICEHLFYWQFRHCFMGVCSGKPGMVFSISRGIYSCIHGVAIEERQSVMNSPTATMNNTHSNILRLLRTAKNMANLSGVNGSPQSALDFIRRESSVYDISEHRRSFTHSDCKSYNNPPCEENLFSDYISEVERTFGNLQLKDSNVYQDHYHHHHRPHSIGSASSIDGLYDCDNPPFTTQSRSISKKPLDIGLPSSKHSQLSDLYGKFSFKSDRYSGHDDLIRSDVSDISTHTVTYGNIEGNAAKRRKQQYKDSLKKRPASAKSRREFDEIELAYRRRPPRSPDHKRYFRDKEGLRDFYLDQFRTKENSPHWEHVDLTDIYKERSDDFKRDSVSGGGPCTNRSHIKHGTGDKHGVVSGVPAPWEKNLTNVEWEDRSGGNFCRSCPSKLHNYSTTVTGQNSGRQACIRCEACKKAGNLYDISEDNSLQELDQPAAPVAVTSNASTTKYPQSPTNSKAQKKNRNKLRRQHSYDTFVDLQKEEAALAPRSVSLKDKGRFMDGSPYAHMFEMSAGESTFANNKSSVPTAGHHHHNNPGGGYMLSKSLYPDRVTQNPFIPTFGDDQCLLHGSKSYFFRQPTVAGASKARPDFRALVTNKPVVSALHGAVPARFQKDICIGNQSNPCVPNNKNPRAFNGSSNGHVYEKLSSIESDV

Turning to `CN(C)CCc1c[nH]c2cccc(OC(=O)OCc3ccccc3)c12` [B(II)], the EC50 at ADRA1A, on ADRA2A, at CHRM2, on DRD2S and on HTR2B (5-HT2B) was > 100 µM in each case. The IC50 against HTR1A (5-HT1A) is > 100 µM; on NMDAR it was 16 µM.

On to `CN(C)CCc1c[nH]c2cccc(OC(=O)OCC3CC3)c12` [B(III)], for which the EC50 on ADRA1A (setting [1]) is > 100 µM; at ADRA2A (setting [2]) it was > 100 µM; at CHRM2 (setting [3]), > 100 µM; on DRD2S (setting [4]), 3.81 µM; at HTR2B (5-HT2B) (setting [6]), > 100 µM. Besides, the IC50 at HTR1A (5-HT1A) (setting [5]) and at NMDAR (setting [7]) was > 100 µM each time.

For the compound `CN(C)Cc1c[nH]c2cccc(O[Si](C)(C)C(C)(C)C)c12` [A(IV)], the EC50 on ADRA1A (setting [1]) was > 100 µM; on ADRA2A (setting [2]), > 100 µM; on CHRM2 (setting [3]) it was > 100 µM; at DRD2S (setting [4]), 12.7 µM; on HTR2B (5-HT2B) (setting [6]) it was > 100 µM. The values for the IC50 on HTR1A (5-HT1A) (setting [5]) and at NMDAR (setting [7]) were > 100 µM and 12.1 µM, respectively.

As to `CN(C)CCc1c[nH]c2cccc(OP(=O)(Oc3ccccc3)Oc3ccccc3)c12` [F(I)], the EC50 at ADRA1A was > 100 µM; on ADRA2A it was > 100 µM; on CHRM2, > 100 µM; on DRD2S it was 3.06 µM; at HTR2B (5-HT2B), > 100 µM. Also, the IC50 on HTR1A (5-HT1A) and on NMDAR was > 100 µM in each case.

With `CCCC(=O)OCOc1cccc2[nH]cc(CCN(C)C)c12` [D(IV)], the EC50 on ADRA1A (setting [1]) is > 100 µM; at ADRA2A (setting [2]), > 100 µM; on CHRM2 (setting [3]) it was > 100 µM; on DRD2S (setting [4]) it was 27.4 µM; on HTR2B (5-HT2B) (setting [6]), > 100 µM. Moreover, the IC50 on HTR1A (5-HT1A) (setting [5]) and at NMDAR (setting [7]) was > 100 µM throughout.

`CC(C)[Si](Oc1cccc2[nH]cc(CN(C)C)c12)(C(C)C)C(C)C` [A(V)]: the EC50 on ADRA1A (setting [1]), at ADRA2A (setting [2]), on CHRM2 (setting [3]), at DRD2S (setting [4]) and at HTR2B (5-HT2B) (setting [6]) was > 100 µM each time. For the same compound, the results for the IC50 at HTR1A (5-HT1A) (setting [5]) and at NMDAR (setting [7]) were > 100 µM and 10.1 µM, respectively.

On to `CC(C)OC(=O)OCOc1cccc2c1c(CCN(C)C)cn2COC(=O)OC(C)C` [D(XIII)], for which the EC50 is > 100 µM at ADRA1A (setting [1]); > 100 µM on ADRA2A (setting [2]); > 100 µM on CHRM2 (setting [3]); 77 µM on DRD2S (setting [4]); > 100 µM at HTR2B (5-HT2B) (setting [6]). For the same compound, the IC50 at HTR1A (5-HT1A) (setting [5]) and on NMDAR (setting [7]) was > 100 µM throughout.

As to `CCCCC(=O)OCOc1cccc2[nH]cc(CCN(C)C)c12` [D(III)], the EC50 on ADRA1A (setting [1]) was > 100 µM; at ADRA2A (setting [2]), > 100 µM; at CHRM2 (setting [3]), > 100 µM; on DRD2S (setting [4]) it was 17.8 µM; on HTR2B (5-HT2B) (setting [6]) it was > 100 µM. For the same compound, the IC50 on HTR1A (5-HT1A) (setting [5]) and on NMDAR (setting [7]) was > 100 µM throughout.
